Laboratory results from patent US12133842B2, “Stable preservative-free mydriatic and anti-inflammatory solutions for injection” (RAYNE INTRAOCULAR LENSES LIMITED, priority 2012, dated 2024).
Entries after “also recorded” stand apart in the source; their conditions may differ. Counter-ions that a name gives are not always drawn.

Columns and labels:
[1] = test system: subjects undergoing unilateral cataract extraction with lens replacement (CELR); assay: Phase 2b human clinical study, irrigation during cataract extraction with lens replacement (CELR), Example 10; format: in vivo; settings: for Subjects Having Pupil Diameter <6 mm during CELR (number of subjects) / Subjects Having Pupil Diameter <6 mm during CELR (percent): intent-to-treat, n = 49 combination, 52 KE, 49 PE
Procedure: A Phase 2b human clinical study evaluated a ketorolac and phenylephrine combination drug composition, formulated in accordance with Formula 1 of the present invention-, for its effect on the maintenance of intra-operative mydriasis (pupil dilation) and reduction of postoperative pain and irritation resulting from cataract and other lens replacement surgery. The combination drug composition was diluted into a balanced salt solution irrigation carrier prior to intraocular administration during intraocular surgical procedures.
The subject Phase 2b study was a randomized, parallel group, vehicle-controlled, factorial design study, and was run to compare phenylephrine (PE), ketorolac (KE) and the combination drug composition containing both PE and KE in subjects undergoing unilateral cataract extraction with lens replacement (CELR) using a coaxial phacoemulsification process with insertion of an acrylic lens. Administration of test irrigation solutions occurred in a double-masked fashion. The study evaluated, in a four-arm full-factorial design, the contribution of the two active pharmaceutical ingredients (PE and KE, alone and in combination) to the maintenance of mydriasis and post-operative reduction in pain when administered diluted in balanced salt solution (BSS). The study also explored the effect of the combination drug composition, PE, and KE on postoperative inflammation. Subjects were randomized to one of the following four treatment arms in a 1:1:1:1 fashion: • a. BSS vehicle • b. 483 μM PE in BSS • c. 89 μM KE in BSS • d. the combination drug composition containing 483 μM PE and 89 μM KE in BSS.
All subjects in this study received preoperative mydriatics and anesthetics. In each of the four groups, the respective irrigation treatment was administered as a single irrigation of the anterior chamber of the eye during the CELR surgical procedure, with a mean of 8 minutes of exposure in this study. In addition, at the end of the procedure, the anterior chamber was filled with the irrigation treatment. The change in pupil diameter over time from surgical baseline (immediately prior to surgical incision) to the end of the surgical procedure (wound closure) was measured, as was postoperative pain on the day of operation as measured by the Visual Analog Scale (VAS) at 2, 4 6, 8 and 10-12 hours and at other times recorded by the patient prior to taking rescue pain medication.

[2] = test system: African green monkey model of human phacoemulsification surgery; assay: Concentration-ranging study of phenylephrine and ketorolac, intraoperative irrigation, phacoemulsification surgical model, Example 6; format: in vivo
Procedure: (§1) In each case an aliquot of the formulation was injected into a balanced salt solution (BSS, Baxter Healthcare, produce code 1A7233) as the irrigation vehicle carrier to a particular final dosing concentration as described below. The studies also utilized Proparacaine HCl (0.5%, Bausch & Lomb), Tropicamide (1.0%, Bausch & Lomb) and Ciprofloxacin HCl (3%, Alcon) to the extent described below.
(§2) The mydriatic and anti-inflammatory properties of the test agents were evaluated in an African green monkey model of human phacoemulsification surgery. Prior to surgery, baseline measures and assessments were performed on both eyes in each monkey to determine pupil diameter, lens and iris integrity, corneal thickness, and anterior chamber flare and cell count by qualitative scoring under biomicroscopy and quantitative flare photometry using a Kowa FM-500 instrument. A phacoemulsification surgery with lens replacement with a polymethyl methacrylate (PMMA) artificial lens was performed using a Storz Premier anterior phacoemulsification machine. The procedure was only performed on the right eye to minimize surgery position variability, allow the left to serve as control, and to minimize the consequence of any possible vision loss induced.
Test animals were placed in a prone position under ketamine/xylazine anesthesia augmented with one drop of topical proparacaine. A small incision was made in the cornea of the right eye with a MVR 20 G lance blade, through which 0.4-0.6 mL of viscoelastic (2% hydroxypropyl methylcellulose, EyeCoat, Eyekon Medical) was introduced into the anterior chamber via a viscoelastic injector. A corneal incision was made 1.0 mm anterior to the limbus using a 2.65 mm straight clear cornea bi-beveled blade. Irrigation was applied with the phacoemulsification hand piece to remove viscoelastic and introduce the test perfusate. After irrigation for a total of four minutes, irrigation was stopped and the anterior chamber refilled with viscoelastic. A capsulorhexis was performed and the phacoemulsification tip reintroduced into the anterior chamber with the application of phacoemulsification energy to disrupt the lens and allow aspiration and lens fragment removal. Irrigation was extended for a period after lens removal to standardize intraocular perfusate delivery across all treatment groups (a total of 14 minutes during this phacoemulsification segment of the irrigation). Following the phacoemulsification and irrigation procedure, a PMMA intraocular lens (IOL) was inserted and an additional two minutes of irrigation perfumed, after which the corneal incision was closed with two 12.0 nylon sutures. Irrigation with a test fluid or vehicle control, as described below, was performed for a total of 20 minutes at a flow rate of 20 mL/min, prior to, during and after phacoemulsification and lens replacement.
(§3) In these studies, laser flare photometry was performed at baseline, 4.5, 24, 48 hours and 1 week after the initiation of the surgical procedure using a Kowa FM-500 (Kowa Company, Tokyo Japan). The Kowa FM-500 measures laser light scattering to quantify anterior chamber flare. A laser is directed into the anterior chamber and protein molecules, released into the anterior chamber during an inflammatory response, pass through the focal point scattering laser light. This light scattering is quantified by a photomultiplier tube as photon counts per millisecond. At each observation point, measurements were collected until seven acceptable readings (difference between two background measurements <15%) were obtained and the lowest and highest readings were deleted and the mean value+/−the standard deviation calculated, as specified by the manufacturer.
The time course of the mydriatic effect was documented through video recording of the pupil during the perfusion procedure. Pupil diameter and the fixed width of the lid speculum (11 mm) were measured from the screen image to allow calculation of the pupil diameter in millimeters.

[3] = cited from earlier work
[4] = test system: African green monkey model of human phacoemulsification surgery; assay: Phenylephrine and ketorolac combination (90 μM PE, 30 μM KE) irrigation in phacoemulsification surgical model, Example 7; format: in vivo
Procedure: as §1
as §2, with “The procedure was only performed on the right eye to minimize surgery position variability, allow the left to serve as control, and to minimize the consequence of any possible vision loss induced.” left out
as §3, with “A laser is directed into the anterior chamber and protein molecules, released into the anterior chamber during an inflammatory response, pass through the focal point scattering laser light.” left out
The time course of the mydriatic effect was documented through video recording of the pupil during the perfusion procedure. Pupil diameter and the fixed width of the lid speculum (11 mm) were measured from the screen image to allow calculation of the pupil diameter in millimeters. […]

[5] = test system: African green monkeys undergoing phacoemulsification surgery with lens replacement; assay: GLP toxicology (safety) study of PE-KE irrigation in phacoemulsification surgery, Example 9; format: in vivo, African green monkey; settings: tropicamide control group; thirty seconds after intracameral 150 μl BSS alone
Procedure: as §1
The mydriatic and anti-inflammatory properties of the test agents were evaluated in an African green monkey model of human phacoemulsification surgery. Prior to surgery, baseline measures and assessments were performed on both eyes in each monkey to determine pupil diameter, lens and iris integrity, corneal thickness, and anterior chamber flare and cell count by qualitative scoring under biomicroscopy and quantitative flare photometry using a Kowa FM-500 instrument. […]
A nonclinical GLP toxicology study was carried out in African green monkeys. […] Three concentrations were evaluated: 720 μM PE and 90 μM KE (720:90 μM) in the low concentration group, 2160 μM PE and 270 μM KE (2160:270 μM) in the mid concentration group, and 7200 μM PE and 900 μM KE (7200:900 μM) in the high concentration group.
A separate control group was evaluated as well. […]

Molecule: O=C(c1ccccc1)c1ccc2n1CCC2C(=O)O (racemic) [ketorolac, (+/−)-5-Benzoyl-2,3-dihydro-1H-pyrrolizine-1-carboxylic acid:2-amino-2(hydroxymethyl)-1,3-propanediol (1:1)]
- anti-miotic effect ([1]; 89 μM KE with 483 μM PE): provided an anti-miotic effect on top of the effect of phenylephrine
- subjects with extreme constriction (pupil reduction of 2.5 mm or more) ([1]; 483 μM PE and/or 89 μM KE in BSS): 21%
- Subjects Having Pupil Diameter <6 mm during CELR (number of subjects) [1]: 18
- Subjects Having Pupil Diameter <6 mm during CELR (percent) [1]: 35%
- flare measurements versus control at 24 and 48 hours ([2]; high and mid dose ketorolac, not statistically significant): remained lower relative to the control group
- mydriasis relative to BSS alone ([2]; ketorolac 3-30 μM in BSS, initial two minutes before phenylephrine): No statistical differences; also recorded: did not result in a change in mydriasis substantially different from that observed with BSS alone
- flare measures / anterior chamber inflammation versus BSS control at 4.5 hours ([2]; mid (10 μM) and high (30 μM) ketorolac groups combined, F=5.17, P<0.0223): statistically significant difference; also recorded: positive effect of ketorolac on anterior chamber inflammation
- solubility of three crystal forms ([3]; water): equally soluble in water

Molecule: CNC[C@H](O)c1cccc(O)c1 [phenylephrine, (−)-m-Hydroxy-a-[(methylamino)methyl]benzyl alcohol hydrochloride]
- Subjects Having Pupil Diameter <6 mm during CELR (number of subjects) [1]: 11
- Subjects Having Pupil Diameter <6 mm during CELR (percent) [1]: 22%
- pupil dilation after adding phenylephrine to ketorolac or BSS perfusate ([2]; 30 μM phenylephrine added at two minutes): rapid dilation occurred
- maximal mydriasis attained, dependence on concentration ([2]; 3, 10, 30, 90 μM): concentration-dependent
- flare measures relative to tropicamide control ([2]; all time points, Student Newman-Keuls, hydrochloride): no treatment effect on flare measures; also recorded: no significant difference between treatment groups
- mean dilation (pupil diameter) at later time points ([2]; high phenylephrine group (30 μM), approaches anatomic limit): ~8.3 mm
- concentration resulting in mydriasis exceeding preoperative topical 1% tropicamide ([2]; in BSS perfusate): ≥ 10 µM
- mydriasis onset and maintenance (video pupil data) ([2]; phenylephrine 3-90 μM in BSS anterior chamber perfusate): rapid onset mydriasis which was maintained throughout the surgical procedure
- flare photometry and pachymetry measures (anterior chamber inflammation, corneal edema) ([2]; phenylephrine added to perfusate): did not indicate a reduction in anterior chamber inflammation or corneal edema
- solubility ([3]; water and alcohol): freely soluble in water and alcohol

Molecule: tropicamide
- mean pupil diameter ([4]; control arm of previous efficacy studies, preoperative topical 1% tropicamide): 5.9 mm
- time at which pupil diameter plateaued ([4]; monkey, in vivo): approximately 2.5 minutes
- maximal dilation relative to PE-KE group ([4]; topical tropicamide 20 minutes before BSS irrigation): lower maximal dilation than exhibited by the PE-KE treatment group
- maximal pupil dilation relative to phenylephrine groups ([2]; two drops 1% topical 20 minutes before BSS irrigation): lower maximal dilation than exhibited by the mid, high and highest concentration phenylephrine groups
- pupil diameter [5]: 5.18±0.18 mm
